{
  "source": "patent US9320750B2",
  "about": "“Compositions and methods of treatment of drug resistant cancers” (priority 2012, dated 2016)",
  "key": {"BT-20 xenograft tumors": {"tested_on": "BT-20 xenograft tumors", "assay": "Xenograft tumor model"}, "MCF7 cells [1]": {"tested_on": "MCF7 cells", "assay": "RNA expression analysis by microarray", "assay_type": "cell-based, human", "conditions": "erlotinib alone, 24 hr", "from_the_text": "(§1) RNA was extracted from cells using the RNAeasy Kit (QIAGEN). Affymetrix Human U133 Plus 2.0 microarrays were hybridized, labeled, and processed on a fee-for-service basis through the MIT BioMicro Center. Microarray data were obtained from three independent biological replicates per time point and analyzed using linear model for microarray (LIMMA).\n(§2) RNA was extracted from cells using the RNAeasy Kit (QIAGEN). Affymetrix Human U133 Plus 2.0 microarrays were hybridized, labeled and processed on a fee-for-service basis through the BioMicro Center at MIT. Microarray data were obtained from 3 independent biological replicates per time point. Detailed analysis of microarray data was performed with help from the Bioinformatics Core Facility at the Koch Institute at MIT. Expression data can be found in the GEO repository under the accession number GSE30516."}, "MDA-MB-453 cells [2]": {"tested_on": "MDA-MB-453 cells", "assay": "RNA expression analysis by microarray", "assay_type": "cell-based, human", "conditions": "erlotinib alone, 24 hr", "from_the_text": "as §1, §2"}, "BT-20 cells [3]": {"tested_on": "BT-20 cells", "assay": "RNA expression analysis by microarray", "assay_type": "cell-based, human", "conditions": "for differentially expressed genes (DEGs): erlotinib alone", "from_the_text": "as §1, §2"}, "caspase-8 [4]": {"tested_on": "caspase-8", "assay": "Caspase-8 cleavage by western blot in lung cancer cell lines", "assay_type": "cell-based, human", "conditions": "ERL→DOX in NCI-H1650, A549 and NCI-H358", "from_the_text": "(§3) Cells were lysed in a manner that would allow samples to be used for both western blot analysis and reverse-phase protein microarray. Data generated by quantitative western blot were preprocessed prior to use in computational modeling. Raw signals for each protein target of interest were quantified and background subtracted using the Li-COR Odyssey software and divided by P-actin signals to normalize for loading differences, and then each normalized signal was divided by a reference sample contained on each gel for gel-to-gel normalization."}, "MCF7 cells [5]": {"tested_on": "MCF7 cells", "assay": "Apoptosis, cleaved caspase-3/cleaved PARP flow cytometry"}, "BT-20 cells [6]": {"tested_on": "BT-20 cells", "description": "(§4) 1×10^6 cells were seeded in a 10 cm dish 24 hr prior to the experiment. […] Following the treatment time course, cells were washed in PBS, trypsinized, and fixed in 4% paraformaldehyde (PFA) in PBS for 15 min at room temperature (RT), then resuspended in ice cold methanol and incubated overnight at −20° C. Cells were then washed twice in PBS+0.1% Tween and stained with antibodies directed against cleaved forms of caspase-3 and PARP (BD PharMingen). […] Data reported are always percent cleaved-caspase-3/cleaved-PARP double positive cells.\n(§5) Following the treatment time course, cells were washed, trypsinized, fixed in 4% paraformaldehyde for 15 min at room temperature, resuspended in ice-cold methanol, and incubated overnight at −20° C. Cells were then washed twice in PBS-Tween and stained with antibodies against cleaved caspase-3 and poly(ADP-ribose) polymerase (PARP). Secondary Alexa-conjugated anti-bodies were used for visualization in a BD FacsCaliber flow cytometer."}, "NCI-H358": {"tested_on": "NCI-H358", "assay": "Apoptosis, cleaved caspase-3/cleaved PARP flow cytometry", "conditions": "time-staggered inhibition of EGFR using erlotinib (ERL→DOX)"}, "[7]": {"tested_on": "ten triple-negative cell lines", "assay": "Apoptosis across panel of triple-negative cell lines", "assay_type": "cell-based, human", "conditions": "time-staggered ERL→DOX", "description": "(§6) 1×10^6 cells were seeded in a 10 cm dish 24 hr prior to the experiment. […]. Following the treatment time course, cells were washed in PBS, trypsinized, and fixed in 4% paraformaldehyde (PFA) in PBS for 15 min at room temperature (RT), then resuspended in ice cold methanol and incubated overnight at −20° C. Cells were then washed twice in PBS+0.1% Tween and stained with antibodies directed against cleaved forms of caspase-3 and PARP (BD PharMingen). Secondary antibodies conjugated to Alexa dyes (488 and 647) were used for visualization in a BD FacsCaliber flow cytometer (Molecular Probes). Data reported are always percent cleaved-caspase-3/cleaved-PARP double positive cells.\nas §5"}, "MDA-MB-453 cells [8]": {"tested_on": "MDA-MB-453 cells", "assay": "Apoptosis, cleaved caspase-3/cleaved PARP flow cytometry", "assay_type": "cell-based, human", "description": "as §6, §5"}, "BT-474 cells": {"tested_on": "BT-474 cells", "assay": "Apoptosis, cleaved caspase-3/cleaved PARP flow cytometry", "assay_type": "cell-based, human", "description": "as §6, §5"}, "NCI-H1650 cells": {"tested_on": "NCI-H1650 cells", "assay": "Apoptosis, cleaved caspase-3/cleaved PARP flow cytometry", "conditions": "time-staggered inhibition of EGFR using erlotinib (ERL→DOX)"}, "caspase-8 [9]": {"tested_on": "caspase-8", "assay": "Caspase-8 cleavage by western blot in TNBC cell lines", "assay_type": "cell-based, human", "conditions": "TNBC cell lines in which ERL→DOX was synergistic; 8 hr after DOX", "from_the_text": "as §3"}, "BT-20 cells [10]": {"tested_on": "BT-20 cells", "assay": "Soft agar growth assay", "assay_type": "cell-based, human", "conditions": "sustained EGFR inhibition with erlotinib", "description": "Soft agar growth assays were performed as described by Sapi, E., Flick, M. B., Rodov, S, and Kacinski, B. M. (1998). Ets-2 Transdominant Mutant Abolishes Anchorage-Independent Growth and Macrophage Colony Stimulating Factor-Stimulated Invasion by BT20 Breast Carcinoma Cells. Cancer Res. 58, 1027-1033."}, "A549": {"tested_on": "A549", "assay": "Apoptosis, cleaved caspase-3/cleaved PARP flow cytometry", "conditions": "time-staggered inhibition of EGFR using erlotinib (ERL→DOX)"}, "Hs578Bst": {"tested_on": "Hs578Bst", "assay": "Apoptosis, cleaved caspase-3/cleaved PARP flow cytometry", "assay_type": "cell-based, human", "conditions": "erlotinib-doxorubicin combinations; normal peripheral breast tissue line", "description": "as §4, §5"}, "caspase-8 [11]": {"tested_on": "caspase-8", "assay": "Caspase-8 cleavage by western blot in HER2-driven cells", "assay_type": "cell-based, human", "conditions": "lapatinib/doxorubicin combinations in HER2-driven cells (MDA-MB-453, BT-474)", "from_the_text": "as §3"}, "[12]": {"conditions": "single dose doxorubicin alone, 4 mg/kg intraperitoneally"}, "[13]": {"conditions": "all temporal combinations of lapatinib and doxorubicin, HER2-overexpressing cells"}, "[14]": {"conditions": "lapatinib pretreatment (LAP→DOX)"}},
  "note": "Entries after “also recorded” stand apart in the source; their conditions may differ. Read-outs that look alike come from different tables or passages of the source.",
  "data": [
    {"smiles": "COc1cccc2c1C(=O)c1c(O)c3c(c(O)c1C2=O)C[C@@](O)(C(=O)CO)C[C@@H]3O[C@H]1C[C@H](N)[C@H](O)[C@H](C)O1", "note": "[doxorubicin]", "values": [
      {"measurement": "time at which residual tumors reached pretreatment volume", "setting": "BT-20 xenograft tumors; [12]", "result": 14, "unit": "days"},
      {"measurement": "tumor volume over the first 3 days after treatment", "setting": "BT-20 xenograft tumors; [12]", "result": "marked reduction in tumor volume"}
    ]},
    {"smiles": "C#Cc1cccc(Nc2ncnc3cc(OCCOC)c(OCCOC)cc23)c1", "note": "[erlotinib]", "values": [
      {"measurement": "genes significantly altered", "setting": "MCF7 cells [1]", "result": "one"},
      {"measurement": "differentially expressed genes (DEGs)", "setting": "MDA-MB-453 cells [2]", "result": 235},
      {"measurement": "breast cancer subtype gene expression pattern", "setting": "BT-20 cells [3]; chronic erlotinib treatment", "result": "progressive time-dependent loss of basal-like gene expression with concomitant gain in luminal A-like gene expression"},
      {"measurement": "differentially expressed genes (DEGs)", "setting": "BT-20 cells [3]; 30 min", "result": "few"},
      {"measurement": "differentially expressed genes (DEGs)", "setting": "BT-20 cells [3]; 6 hr", "result": "more than 1,200"},
      {"measurement": "differentially expressed genes (DEGs)", "setting": "BT-20 cells [3]; 24 hr", "result": "more than 2,000"},
      {"measurement": "GeneGO cellular networks with significant changes (of 34)", "setting": "BT-20 cells [3]; long-term erlotinib treatment", "result": 16},
      {"measurement": "GSEA oncogenic signatures", "setting": "BT-20 cells [3]; sustained erlotinib exposure", "result": "loss of the Ras and MYC oncogenic signatures"},
      {"measurement": "caspase-8 cleavage", "setting": "caspase-8 [4]", "result": "associated with caspase-8 cleavage"},
      {"measurement": "interaction with doxorubicin (Chou-Talalay method)", "setting": "MCF7 cells [5]; all temporal erlotinib-doxorubicin combinations", "result": "merely additive"},
      {"measurement": "cell death", "setting": "MCF7 cells [5]; erlotinib alone", "result": "did not cause death"},
      {"measurement": "increase in cell killing (apoptotic response)", "setting": "BT-20 cells [6]", "result": "≤ 500", "unit": "%"},
      {"measurement": "interaction with doxorubicin in killing (Chou-Talalay method)", "setting": "BT-20 cells [6]", "result": "synergistic"},
      {"measurement": "killing in combination with camptothecin", "setting": "BT-20 cells [6]", "result": "Synergistic killing"},
      {"measurement": "killing in combination with doxorubicin", "setting": "BT-20 cells [6]", "result": "Synergistic killing"},
      {"measurement": "effect on apoptosis of adding erlotinib to EGFR knockdown cells", "setting": "BT-20 cells [6]; EGFR siRNA knockdown, delayed doxorubicin", "result": "no additional effect"},
      {"measurement": "cell death", "setting": "BT-20 cells [6]; erlotinib alone", "result": "did not cause death"},
      {"measurement": "apoptotic stimulus", "setting": "BT-20 cells [6]; erlotinib alone or added at the same time as or shortly before doxorubicin, 10 μM, TNBC (BT-20) cells", "result": "not a potent apoptotic stimulus"},
      {"measurement": "sensitization to killing by doxorubicin", "setting": "NCI-H358", "result": "dramatic sensitization"},
      {"measurement": "cell lines with enhanced sensitivity to doxorubicin", "setting": "[7]; sustained EGFR inhibition", "result": "nine of ten"},
      {"measurement": "cell lines with synergistic effect", "setting": "[7]; Chou-Talalay combination index", "result": "four of the ten"},
      {"measurement": "effect on doxorubicin sensitivity", "setting": "MDA-MB-453 cells [8]; chronic EGFR inhibition, erlotinib pretreatment before doxorubicin", "result": "antagonized doxorubicin sensitivity; also recorded: desensitized"},
      {"measurement": "cell death", "setting": "MDA-MB-453 cells [8]; erlotinib alone", "result": "did not cause death"},
      {"measurement": "effect on sensitivity to doxorubicin", "setting": "BT-474 cells; pretreatment with erlotinib", "result": "desensitization"},
      {"measurement": "sensitization to killing by doxorubicin", "setting": "NCI-H1650 cells", "result": "dramatic sensitization"},
      {"measurement": "caspase-8 cleavage", "setting": "caspase-8 [9]", "result": "caspase-8 cleavage following sequential administration, but not other drug treatments"},
      {"measurement": "soft agar colony formation", "setting": "BT-20 cells [10]", "result": "potently inhibited"},
      {"measurement": "sensitization to killing by doxorubicin", "setting": "A549", "result": "dramatic sensitization"},
      {"measurement": "effect of order and timing of drug addition on apoptosis", "setting": "Hs578Bst", "result": "little effect"},
      {"measurement": "tumor regrowth", "setting": "BT-20 xenograft tumors; erlotinib 25 mg/kg given 8 hr prior to doxorubicin 4 mg/kg (E→D), i.p., 14 day monitoring", "result": "failed to regrow"},
      {"measurement": "initial reduction in tumor size versus doxorubicin alone", "setting": "BT-20 xenograft tumors; erlotinib 25 mg/kg given at the same time as doxorubicin 4 mg/kg (D/E), i.p.", "result": "initial reduction in tumor size was greater"}
    ]},
    {"smiles": "CS(=O)(=O)CCNCc1ccc(-c2ccc3ncnc(Nc4ccc(OCc5cccc(F)c5)c(Cl)c4)c3c2)o1", "note": "[lapatinib]", "values": [
      {"measurement": "caspase-8 cleavage", "setting": "caspase-8 [11]", "result": "only observed following LAP→DOX treatment"},
      {"measurement": "killing in combination with camptothecin", "setting": "BT-20 cells [6]; time-staggered pretreatment with EGFR inhibitor, then camptothecin", "result": "Synergistic killing"},
      {"measurement": "killing in combination with doxorubicin", "setting": "BT-20 cells [6]; time-staggered pretreatment with EGFR inhibitor, then doxorubicin", "result": "Synergistic killing"},
      {"measurement": "interaction with doxorubicin", "setting": "MDA-MB-453 cells [8]; [13]", "result": "synergistic"},
      {"measurement": "effect on sensitivity to doxorubicin", "setting": "MDA-MB-453 cells [8]; [14]", "result": "enhanced sensitivity to doxorubicin"},
      {"measurement": "interaction with doxorubicin", "setting": "BT-474 cells; [13]", "result": "synergistic"},
      {"measurement": "effect on sensitivity to doxorubicin", "setting": "BT-474 cells; [14]", "result": "enhanced sensitivity to doxorubicin"}
    ]}
  ]
}
